Publication PMC4457528, “Identification of Novel Small Molecule Inhibitors of Oncogenic RET Kinase” (PLoS ONE, 2015)
Read-outs that look alike come from different tables or passages of the source.

Columns and labels:
Assay in all cases: KinomeScan kinase panel, single concentration 10 µM
Format in all cases: binding
KinomeScan kinase panel [1] = target: T1, KinomeScan kinase panel (Homo sapiens, UniProt Q86YV6); conditions: read-out: score (%)
T1 construct: purchased DiscoveRx (KinomeScan)
T1 sequence (Q86YV6 1-388): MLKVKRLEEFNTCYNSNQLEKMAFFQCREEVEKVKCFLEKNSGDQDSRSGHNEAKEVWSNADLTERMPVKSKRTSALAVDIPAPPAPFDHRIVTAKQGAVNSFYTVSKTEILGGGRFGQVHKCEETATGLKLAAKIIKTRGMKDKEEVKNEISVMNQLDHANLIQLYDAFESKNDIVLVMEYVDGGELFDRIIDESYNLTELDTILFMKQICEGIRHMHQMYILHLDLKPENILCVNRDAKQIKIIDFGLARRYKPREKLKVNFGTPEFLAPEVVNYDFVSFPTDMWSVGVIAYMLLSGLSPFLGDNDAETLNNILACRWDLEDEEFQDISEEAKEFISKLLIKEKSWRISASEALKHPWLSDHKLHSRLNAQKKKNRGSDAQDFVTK

KinomeScan kinase panel [2] = target: T2, KinomeScan kinase panel (Homo sapiens, UniProt P35968); conditions: kinase VEGFR2; 10 µM; read-out: score (%)
T2 construct: purchased DiscoveRx (KinomeScan)

KinomeScan kinase panel [3] = target: T3, KinomeScan kinase panel (Homo sapiens, UniProt P31751); conditions: AKT2, 10 µM; read-out: score (%)
T3 construct: purchased DiscoveRx (KinomeScan)

KinomeScan kinase panel [4] = target: T4, KinomeScan kinase panel (Homo sapiens, UniProt Q6P3R8); conditions: NEK5, 10 µM; read-out: score (%)
T4 construct: purchased DiscoveRx (KinomeScan)
T4 sequence (Q6P3R8 1-708): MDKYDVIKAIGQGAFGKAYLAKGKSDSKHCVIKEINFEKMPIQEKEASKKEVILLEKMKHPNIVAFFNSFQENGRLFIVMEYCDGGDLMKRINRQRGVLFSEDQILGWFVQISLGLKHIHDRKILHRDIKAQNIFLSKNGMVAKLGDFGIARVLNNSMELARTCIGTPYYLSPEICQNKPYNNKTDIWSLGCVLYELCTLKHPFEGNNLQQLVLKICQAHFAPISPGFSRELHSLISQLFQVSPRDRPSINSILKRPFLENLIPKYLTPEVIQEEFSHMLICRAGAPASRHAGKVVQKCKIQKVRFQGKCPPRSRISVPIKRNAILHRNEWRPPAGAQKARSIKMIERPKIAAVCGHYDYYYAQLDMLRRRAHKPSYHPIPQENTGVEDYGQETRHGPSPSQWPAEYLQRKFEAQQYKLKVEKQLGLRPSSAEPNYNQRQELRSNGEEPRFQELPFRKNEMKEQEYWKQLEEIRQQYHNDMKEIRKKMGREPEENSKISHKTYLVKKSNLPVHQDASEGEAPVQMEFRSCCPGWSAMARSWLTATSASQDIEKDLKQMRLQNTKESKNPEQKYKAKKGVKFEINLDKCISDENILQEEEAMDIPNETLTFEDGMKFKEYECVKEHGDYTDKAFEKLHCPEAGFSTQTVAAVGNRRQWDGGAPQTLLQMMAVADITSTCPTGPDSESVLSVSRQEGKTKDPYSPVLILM

KinomeScan kinase panel [5] = target: T5, KinomeScan kinase panel (Homo sapiens, UniProt P29320); conditions: EPHA3, 10 µM; read-out: score (%)
T5 construct: purchased DiscoveRx (KinomeScan)
T5 sequence (P29320 21-983): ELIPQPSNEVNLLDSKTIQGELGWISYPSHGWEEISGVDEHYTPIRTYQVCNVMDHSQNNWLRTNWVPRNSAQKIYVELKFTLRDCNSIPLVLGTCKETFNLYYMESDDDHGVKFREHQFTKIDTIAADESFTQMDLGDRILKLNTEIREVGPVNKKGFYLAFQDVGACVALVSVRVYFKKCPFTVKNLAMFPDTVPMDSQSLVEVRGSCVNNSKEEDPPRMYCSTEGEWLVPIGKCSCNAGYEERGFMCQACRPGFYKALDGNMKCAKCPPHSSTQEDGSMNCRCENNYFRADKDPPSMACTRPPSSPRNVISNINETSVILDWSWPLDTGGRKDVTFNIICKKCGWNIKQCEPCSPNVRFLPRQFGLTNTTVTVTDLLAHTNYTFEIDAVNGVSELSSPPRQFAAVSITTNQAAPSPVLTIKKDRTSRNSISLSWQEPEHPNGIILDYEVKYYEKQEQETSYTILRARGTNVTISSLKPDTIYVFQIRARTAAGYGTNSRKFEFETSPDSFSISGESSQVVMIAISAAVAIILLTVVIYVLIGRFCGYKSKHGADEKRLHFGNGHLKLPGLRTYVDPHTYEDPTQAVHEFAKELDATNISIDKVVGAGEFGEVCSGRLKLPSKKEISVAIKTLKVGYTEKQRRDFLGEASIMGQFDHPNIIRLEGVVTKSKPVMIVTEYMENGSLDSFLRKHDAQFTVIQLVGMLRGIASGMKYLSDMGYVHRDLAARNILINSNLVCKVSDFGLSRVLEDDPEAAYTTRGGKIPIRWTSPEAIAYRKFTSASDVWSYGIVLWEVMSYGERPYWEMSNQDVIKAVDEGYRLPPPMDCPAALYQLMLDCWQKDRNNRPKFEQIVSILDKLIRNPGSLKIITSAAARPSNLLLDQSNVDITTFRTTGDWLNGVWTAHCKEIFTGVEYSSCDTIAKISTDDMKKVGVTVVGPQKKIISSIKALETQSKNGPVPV

KinomeScan kinase panel [6] = target: T6, KinomeScan kinase panel (Homo sapiens, UniProt Q9BWU1); conditions: CDK11, 10 µM
T6 construct: purchased DiscoveRx (KinomeScan)

KinomeScan kinase panel [7] = target: T7, KinomeScan kinase panel (Homo sapiens, UniProt Q8IW41); conditions: MAPKAPK5, 10 µM; read-out: score (%)
T7 construct: purchased DiscoveRx (KinomeScan)
T7 sequence (Q8IW41 1-473): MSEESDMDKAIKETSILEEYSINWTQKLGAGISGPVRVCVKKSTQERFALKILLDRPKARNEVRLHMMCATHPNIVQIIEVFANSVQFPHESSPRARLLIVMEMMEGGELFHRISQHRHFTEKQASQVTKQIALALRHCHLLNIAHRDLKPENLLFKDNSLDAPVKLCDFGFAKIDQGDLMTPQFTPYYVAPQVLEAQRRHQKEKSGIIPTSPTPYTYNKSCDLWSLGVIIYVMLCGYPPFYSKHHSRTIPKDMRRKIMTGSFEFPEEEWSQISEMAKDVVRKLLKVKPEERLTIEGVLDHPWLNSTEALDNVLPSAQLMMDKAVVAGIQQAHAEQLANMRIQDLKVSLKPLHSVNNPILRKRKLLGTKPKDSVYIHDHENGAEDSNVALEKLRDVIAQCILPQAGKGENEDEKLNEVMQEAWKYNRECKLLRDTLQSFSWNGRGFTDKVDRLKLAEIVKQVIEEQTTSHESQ

KinomeScan kinase panel [8] = target: T8, KinomeScan kinase panel (Homo sapiens, UniProt Q05397); conditions: read-out: score (%)
T8 construct: purchased DiscoveRx (KinomeScan)
T8 sequence (Q05397 whole entry): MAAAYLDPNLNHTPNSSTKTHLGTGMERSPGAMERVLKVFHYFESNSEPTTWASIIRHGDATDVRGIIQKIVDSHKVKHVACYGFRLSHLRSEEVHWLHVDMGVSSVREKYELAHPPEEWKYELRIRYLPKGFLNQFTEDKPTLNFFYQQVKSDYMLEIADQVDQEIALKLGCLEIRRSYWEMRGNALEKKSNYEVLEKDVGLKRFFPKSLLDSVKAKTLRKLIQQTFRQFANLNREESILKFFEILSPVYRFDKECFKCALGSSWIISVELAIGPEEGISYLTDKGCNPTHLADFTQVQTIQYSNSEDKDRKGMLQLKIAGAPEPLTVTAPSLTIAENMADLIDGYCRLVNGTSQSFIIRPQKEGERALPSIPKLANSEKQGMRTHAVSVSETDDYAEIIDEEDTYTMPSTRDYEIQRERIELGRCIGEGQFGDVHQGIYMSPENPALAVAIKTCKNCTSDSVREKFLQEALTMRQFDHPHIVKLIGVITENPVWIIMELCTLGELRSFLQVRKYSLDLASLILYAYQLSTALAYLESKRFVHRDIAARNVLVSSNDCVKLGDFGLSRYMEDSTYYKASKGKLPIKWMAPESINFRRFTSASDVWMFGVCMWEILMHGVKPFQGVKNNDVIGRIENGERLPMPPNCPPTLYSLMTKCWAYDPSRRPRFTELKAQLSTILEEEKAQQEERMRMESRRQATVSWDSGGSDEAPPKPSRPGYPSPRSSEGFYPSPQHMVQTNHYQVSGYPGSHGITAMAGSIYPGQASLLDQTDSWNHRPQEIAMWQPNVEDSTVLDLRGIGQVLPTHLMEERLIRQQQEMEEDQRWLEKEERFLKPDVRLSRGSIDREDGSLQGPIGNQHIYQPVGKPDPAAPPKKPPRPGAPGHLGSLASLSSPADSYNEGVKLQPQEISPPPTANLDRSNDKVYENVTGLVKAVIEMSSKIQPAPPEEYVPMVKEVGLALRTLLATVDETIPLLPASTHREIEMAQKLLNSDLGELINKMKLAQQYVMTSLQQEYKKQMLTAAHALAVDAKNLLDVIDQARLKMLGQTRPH

T2 sequence (P35968 20-1356): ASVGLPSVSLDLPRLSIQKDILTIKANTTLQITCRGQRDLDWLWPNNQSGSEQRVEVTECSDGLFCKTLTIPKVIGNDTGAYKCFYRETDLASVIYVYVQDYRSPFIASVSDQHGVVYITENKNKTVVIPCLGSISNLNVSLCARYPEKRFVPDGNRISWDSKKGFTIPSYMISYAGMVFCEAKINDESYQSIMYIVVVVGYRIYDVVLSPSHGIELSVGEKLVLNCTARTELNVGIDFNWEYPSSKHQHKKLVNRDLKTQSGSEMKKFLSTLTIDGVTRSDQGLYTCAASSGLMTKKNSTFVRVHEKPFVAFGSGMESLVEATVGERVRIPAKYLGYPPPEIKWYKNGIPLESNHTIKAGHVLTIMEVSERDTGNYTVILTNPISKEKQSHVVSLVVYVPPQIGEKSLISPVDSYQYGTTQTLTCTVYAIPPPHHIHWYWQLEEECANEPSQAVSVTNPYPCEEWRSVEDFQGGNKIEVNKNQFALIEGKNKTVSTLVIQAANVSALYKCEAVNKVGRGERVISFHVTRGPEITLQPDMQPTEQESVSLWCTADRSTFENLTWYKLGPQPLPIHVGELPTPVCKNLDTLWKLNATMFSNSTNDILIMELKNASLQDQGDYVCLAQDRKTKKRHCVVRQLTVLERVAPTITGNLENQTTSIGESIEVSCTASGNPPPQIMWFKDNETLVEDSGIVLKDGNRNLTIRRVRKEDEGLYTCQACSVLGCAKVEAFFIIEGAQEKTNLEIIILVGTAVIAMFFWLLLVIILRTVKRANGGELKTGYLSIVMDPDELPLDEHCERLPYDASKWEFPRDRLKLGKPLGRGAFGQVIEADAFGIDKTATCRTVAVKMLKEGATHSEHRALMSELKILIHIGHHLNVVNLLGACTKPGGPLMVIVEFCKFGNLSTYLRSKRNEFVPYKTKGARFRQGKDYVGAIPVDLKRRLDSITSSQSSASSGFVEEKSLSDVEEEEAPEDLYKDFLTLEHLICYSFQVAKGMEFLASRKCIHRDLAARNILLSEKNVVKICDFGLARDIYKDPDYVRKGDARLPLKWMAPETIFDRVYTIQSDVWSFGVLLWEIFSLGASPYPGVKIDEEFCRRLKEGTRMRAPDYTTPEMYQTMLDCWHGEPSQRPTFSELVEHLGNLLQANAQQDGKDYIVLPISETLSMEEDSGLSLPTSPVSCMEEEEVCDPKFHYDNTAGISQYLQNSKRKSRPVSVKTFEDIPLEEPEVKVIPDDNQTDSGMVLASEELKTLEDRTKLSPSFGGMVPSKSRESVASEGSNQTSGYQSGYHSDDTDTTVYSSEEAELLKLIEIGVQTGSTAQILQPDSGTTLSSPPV
T3 sequence (P31751 whole entry): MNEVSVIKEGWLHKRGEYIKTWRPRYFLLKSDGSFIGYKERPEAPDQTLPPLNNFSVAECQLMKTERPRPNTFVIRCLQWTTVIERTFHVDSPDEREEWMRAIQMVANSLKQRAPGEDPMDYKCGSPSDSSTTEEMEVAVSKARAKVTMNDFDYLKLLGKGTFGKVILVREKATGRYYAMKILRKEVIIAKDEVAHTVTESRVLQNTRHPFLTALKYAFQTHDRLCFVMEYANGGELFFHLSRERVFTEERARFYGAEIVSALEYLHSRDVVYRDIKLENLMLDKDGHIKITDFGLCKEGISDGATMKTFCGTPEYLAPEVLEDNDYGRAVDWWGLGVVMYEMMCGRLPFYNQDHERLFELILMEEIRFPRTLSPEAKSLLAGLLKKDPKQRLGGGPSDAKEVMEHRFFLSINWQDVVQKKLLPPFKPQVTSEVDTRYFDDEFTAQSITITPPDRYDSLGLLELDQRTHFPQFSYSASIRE
T6 sequence (Q9BWU1 whole entry): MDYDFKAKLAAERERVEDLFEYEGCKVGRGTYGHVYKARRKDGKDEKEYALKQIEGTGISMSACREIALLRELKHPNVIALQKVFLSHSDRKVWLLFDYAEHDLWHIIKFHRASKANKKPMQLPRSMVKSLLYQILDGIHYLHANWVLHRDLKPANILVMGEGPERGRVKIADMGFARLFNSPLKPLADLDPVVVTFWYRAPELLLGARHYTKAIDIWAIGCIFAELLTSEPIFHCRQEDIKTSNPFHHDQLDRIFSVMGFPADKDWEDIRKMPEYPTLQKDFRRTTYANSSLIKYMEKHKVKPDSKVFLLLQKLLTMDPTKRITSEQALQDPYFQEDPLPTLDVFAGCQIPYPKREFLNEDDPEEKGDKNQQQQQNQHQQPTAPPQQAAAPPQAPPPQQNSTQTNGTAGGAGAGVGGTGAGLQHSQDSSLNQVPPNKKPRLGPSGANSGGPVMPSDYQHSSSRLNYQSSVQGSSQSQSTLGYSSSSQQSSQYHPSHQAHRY

| remaining binding at 10 µM (KinomeScan kinase panel [1]; SgK085, 10 µM) | remaining binding at 10 µM (KinomeScan kinase panel [8]; PTK2, 10 µM) | SMILES | remaining binding at 10 µM (KinomeScan kinase panel [1]; kinase SgK085, 10 µM) | remaining binding at 10 µM (KinomeScan kinase panel [2]) | remaining binding at 10 µM (KinomeScan kinase panel [3]) | remaining binding at 10 µM (KinomeScan kinase panel [4]) | remaining binding at 10 µM (KinomeScan kinase panel [5]) | score (%) (KinomeScan kinase panel [6]) | remaining binding at 10 µM (KinomeScan kinase panel [7]) | remaining binding at 10 µM (KinomeScan kinase panel [8]; FAK, 10 µM) | remaining binding at 10 µM (KinomeScan kinase panel [1]; MYLK4, 10 µM) |
| --- | --- | --- | --- | --- | --- | --- | --- | --- | --- | --- | --- |
|  |  | CCN1CCN(Cc2ccc(NC(=O)c3ccc(C)c(NC(=O)c4cncc(-c5cccs5)c4)c3)cc2C(F)(F)F)CC1 [ALW-II-41-27] | > 30% | 1.8% | > 30% | > 30% | 7.6% | 3.8% | > 30% | > 30% |  |
| 8.5% | > 30% | CCN1CCN(Cc2ccc(NC(=O)c3ccc(C)c(/C=C/c4cnc5[nH]ccc5c4Cl)c3)cc2C(F)(F)F)CC1 [HG-6-63-01, (E)-3-(2-(4-chloro-1H-pyrrolo[2,3-b]pyridin-5-yl)vinyl)-N-(4-((4-ethylpiperazin-1-yl)methyl)-3-(trifluoromethyl)phenyl)-4-methylbenzamide] |  | 0.35% | > 30% | 7% | 11% | 3% | > 30% |  |  |
|  |  | CCN1CCN(Cc2ccc(NC(=O)c3ccc(C)c(C#Cc4cccnc4)c3)cc2C(F)(F)F)CC1 [XMD15-44] |  | 0.25% | 30% | 4.8% | 0.85% | 5% | > 30% | > 30% | > 30% |
